Source: US3960833A, “Butirosin A 3",5"-O-isopropylidene derivatives” (Bristol-Myers Company, priority 1975, dated 1976)
Values after ≈ are worked out from the molar mass of the structure shown.

What was measured:
Format in all cases: cell-based
[1] = system: E. coli A20107; assay: MIC by Steers agar-dilution method on Mueller-Hinton medium; settings: Escherichia coli; E. coli A20107; Mueller-Hinton medium; read-out: MIC
From the text: (§1) Illustrated below is a table showing the minimal inhibitory concentrations (MIC's) of butirosin A, 4'-deoxybutirosin A and compound 11 (BB-K186) against a variety of gram-positive and gram-negativebacteria as obtained by the Steers agar-dilution method on Mueller-Hinton medium.

[2] = system: E. coli A20732; assay: as above; settings: Escherichia coli; E. coli A20732; Mueller-Hinton medium; read-out: MIC
From the text: as §1

[3] = system: E. coli A20895; assay: as above; settings: Escherichia coli; E. coli A20895; Mueller-Hinton medium; read-out: MIC
From the text: as §1

[4] = system: E. coli JR35/C600; assay: as above; settings: Escherichia coli
From the text: as §1

[5] = system: E. coli JR66/W677; assay: as above; settings: Escherichia coli
From the text: as §1

[6] = system: E. coli ML1630; assay: as above; settings: Escherichia coli; E. coli ML1630; Mueller-Hinton medium; read-out: MIC
From the text: as §1

[7] = system: E. coli NIHJ; assay: as above; settings: Escherichia coli; E. coli NIHJ; Mueller-Hinton medium; read-out: MIC
From the text: as §1

[8] = system: E. coli NR79/W677; assay: as above; settings: Escherichia coli
From the text: as §1

[9] = system: E. coli PO1495; assay: as above; settings: Escherichia coli
From the text: as §1

[10] = system: E. coli R5; assay: as above; settings: Escherichia coli; E. coli R5; Mueller-Hinton medium; read-out: MIC
From the text: as §1

[11] = system: Ent. cloacae A20364; assay: as above; settings: Enterobacter cloacae; Ent. cloacae A20364; Mueller-Hinton medium; read-out: MIC
From the text: as §1

[12] = system: Ent. cloacae A21006; assay: as above; settings: Enterobacter cloacae; Ent. cloacae A21006; Mueller-Hinton medium; read-out: MIC
From the text: as §1

[13] = system: K. pneumoniae 22-3038; assay: as above; settings: Klebsiella pneumoniae, 223038; K. pneumoniae 22-3038; Mueller-Hinton medium; read-out: MIC
From the text: as §1

[14] = system: K. pneumoniae D11; assay: as above; settings: Klebsiella pneumoniae; K. pneumoniae D11; Mueller-Hinton medium; read-out: MIC
From the text: as §1

[15] = system: Pr. mirabilis A9554; assay: as above; settings: Proteus mirabilis; Pr. mirabilis A9554; Mueller-Hinton medium; read-out: MIC
From the text: as §1

[16] = system: Pr. morganii A20031; assay: as above; settings: Morganella morganii; Pr. morganii A20031; Mueller-Hinton medium; read-out: MIC
From the text: as §1

[17] = system: Pr. vulgaris A9436; assay: as above; settings: Proteus vulgaris; Pr. vulgaris A9436; Mueller-Hinton medium; read-out: MIC
From the text: as §1

[18] = system: Prov. stuartii A20894; assay: as above; settings: Providencia stuartii; Prov. stuartii A20894; Mueller-Hinton medium; read-out: MIC
From the text: as §1

[19] = system: Ps. aeruginosa A20601; assay: as above; settings: Pseudomonas aeruginosa; Ps. aeruginosa A20601; Mueller-Hinton medium; read-out: MIC
From the text: as §1

[20] = system: Ps. aeruginosa A20635; assay: as above; settings: Pseudomonas aeruginosa; Ps. aeruginosa A20635; Mueller-Hinton medium; read-out: MIC
From the text: as §1

[21] = system: Ps. aeruginosa A20896; assay: as above; settings: Pseudomonas aeruginosa; Ps. aeruginosa A20896; Mueller-Hinton medium; read-out: MIC
From the text: as §1

[22] = system: Ps. aeruginosa A9930; assay: as above; settings: Pseudomonas aeruginosa; Ps. aeruginosa A9930; Mueller-Hinton medium; read-out: MIC
From the text: as §1

[23] = system: Ps. aeruginosa GN-315; assay: as above; settings: Pseudomonas aeruginosa, GN315; Ps. aeruginosa GN-315; Mueller-Hinton medium; read-out: MIC
From the text: as §1

[24] = system: Ps. aeruginosa No. 130; assay: as above; settings: Pseudomonas aeruginosa; Ps. aeruginosa No. 130; Mueller-Hinton medium; read-out: MIC
From the text: as §1

[25] = system: Pseudomonas sp. A20621; assay: as above; settings: Pseudomonas sp. A20621; Mueller-Hinton medium; read-out: MIC
From the text: as §1

[26] = system: S. aureus A20239; assay: as above; settings: Staphylococcus aureus; S. aureus A20239; Mueller-Hinton medium; read-out: MIC
From the text: as §1

[27] = system: S. aureus D133; assay: as above; settings: Staphylococcus aureus; S. aureus D133; Mueller-Hinton medium; read-out: MIC
From the text: as §1

[28] = system: S. aureus D137; assay: as above; settings: Staphylococcus aureus; S. aureus D137; Mueller-Hinton medium; read-out: MIC
From the text: as §1

[29] = system: S. aureus D193; assay: as above; settings: Staphylococcus aureus; S. aureus D193; Mueller-Hinton medium; read-out: MIC
From the text: as §1

[30] = system: S. aureus Smith; assay: as above; settings: Staphylococcus aureus; S. aureus Smith; Mueller-Hinton medium; read-out: MIC
From the text: as §1

[31] = system: Ser. marcescens A20019; assay: as above; settings: Serratia marcescens; Ser. marcescens A20019; Mueller-Hinton medium; read-out: MIC
From the text: as §1

[32] = system: Ser. marcescens A21247; assay: as above; settings: Serratia marcescens; Ser. marcescens A21247; Mueller-Hinton medium; read-out: MIC
From the text: as §1

[33] = system: a variety of gram-positive and gram-negative bacteria; assay: Antibacterial activity overall (MIC, Steers agar-dilution method); settings: in words
From the text: as §1

[34] = system: Pseudomonas aeruginosa; assay: Antibacterial activity against Pseudomonas aeruginosa (MIC, Steers agar-dilution method); settings: in words
From the text: as §1

Row | SMILES | MIC [1] | MIC [2] | MIC [3] | MIC [4] | MIC [5] | MIC [6] | MIC [7] | MIC [8] | MIC [9] | MIC [10] | MIC [11] | MIC [12] | MIC [13] | MIC [14] | MIC [15] | MIC [16] | MIC [17] | MIC [18] | MIC [19] | MIC [20] | other results
1 | NCC[C@H](O)C(=O)N[C@@H]1C[C@H](N)[C@@H](O[C@H]2O[C@H](CN)C[C@H](O)[C@H]2N)[C@H](O[C@@H]2O[C@H](CO)[C@H](O)[C@H]2O)[C@H]1O [Bu-1975C1, 4'-deoxybutirosin A] | 3.1 µg/mL (≈ 5.75 µM) | 1.6 µg/mL (≈ 2.97 µM) | 3.1 µg/mL (≈ 5.75 µM) | 0.8 µg/mL (≈ 1.48 µM) | 6.3 µg/mL (≈ 11.7 µM) | 3.1 µg/mL (≈ 5.75 µM) | 1.6 µg/mL (≈ 2.97 µM) | > 100 µg/mL | 1.6 µg/mL (≈ 2.97 µM) | 3.1 µg/mL (≈ 5.75 µM) | 3.1 µg/mL (≈ 5.75 µM) | 6.3 µg/mL (≈ 11.7 µM) | 6.3 µg/mL (≈ 11.7 µM) | 0.8 µg/mL (≈ 1.48 µM) | 1.6 µg/mL (≈ 2.97 µM) | 3.1 µg/mL (≈ 5.75 µM) | 0.8 µg/mL (≈ 1.48 µM) | > 100 µg/mL | 25 µg/mL (≈ 46.3 µM) | > 100 µg/mL | MIC [21]: 50 µg/mL (≈ 92.7 µM); MIC [22]: 1.6 µg/mL (≈ 2.97 µM); MIC [23]: > 100 µg/mL; MIC [24]: 25 µg/mL (≈ 46.3 µM); MIC [25]: > 100 µg/mL; MIC [26]: 6.3 µg/mL (≈ 11.7 µM); MIC [27]: 6.3 µg/mL (≈ 11.7 µM); MIC [28]: 25 µg/mL (≈ 46.3 µM); MIC [29]: 3.1 µg/mL (≈ 5.75 µM); MIC [30]: 1.6 µg/mL (≈ 2.97 µM); MIC [31]: 6.3 µg/mL (≈ 11.7 µM); MIC [32]: 6.3 µg/mL (≈ 11.7 µM)
2 | NCC[C@H](O)C(=O)N[C@@H]1C[C@H](N)[C@@H](O[C@H]2O[C@H](CN)[C@@H](O)C[C@H]2N)[C@H](O[C@@H]2O[C@H](CO)[C@H](O)[C@H]2O)[C@H]1O [Compound 11, 3'-deoxybutirosin A] | 3.1 µg/mL (≈ 5.75 µM) | 1.6 µg/mL (≈ 2.97 µM) | 3.1 µg/mL (≈ 5.75 µM) | 0.8 µg/mL (≈ 1.48 µM) | 3.1 µg/mL (≈ 5.75 µM) | 3.1 µg/mL (≈ 5.75 µM) | 1.6 µg/mL (≈ 2.97 µM) | > 100 µg/mL | 1.6 µg/mL (≈ 2.97 µM) | 3.1 µg/mL (≈ 5.75 µM) | 1.6 µg/mL (≈ 2.97 µM) | 3.1 µg/mL (≈ 5.75 µM) | 3.1 µg/mL (≈ 5.75 µM) | 0.8 µg/mL (≈ 1.48 µM) | 1.6 µg/mL (≈ 2.97 µM) | 3.1 µg/mL (≈ 5.75 µM) | 0.4 µg/mL (≈ 0.741 µM) | 25 µg/mL (≈ 46.3 µM) | 12.5 µg/mL (≈ 23.2 µM) | 25 µg/mL (≈ 46.3 µM) | MIC [21]: 50 µg/mL (≈ 92.7 µM); MIC [22]: 0.8 µg/mL (≈ 1.48 µM); MIC [23]: > 100 µg/mL; MIC [24]: 12.5 µg/mL (≈ 23.2 µM); MIC [25]: 100 µg/mL (≈ 185 µM); MIC [26]: 3.1 µg/mL (≈ 5.75 µM); MIC [27]: 3.1 µg/mL (≈ 5.75 µM); MIC [28]: 12.5 µg/mL (≈ 23.2 µM); MIC [29]: 1.6 µg/mL (≈ 2.97 µM); MIC [30]: 0.8 µg/mL (≈ 1.48 µM); MIC [31]: 6.3 µg/mL (≈ 11.7 µM); MIC [32]: 3.1 µg/mL (≈ 5.75 µM); antibacterial activity compared with butirosin A and 4'-deoxybutirosin A [33]: good antibacterial activity that in many respects is superior to butirosin A itself and in some respects superior to 4'-deoxybutirosin A; antibacterial activity compared with butirosin A and 4'-deoxybutirosin A ([33]; listed as compound 11): equal to or superior in most respects to butirosin A and 4'-deoxybutirosin A; activity against Pseudomonas aeruginosa [34]: particularly improved in its activity against Pseudomonas aeruginosa
